# Active and inactive are the calls of the source. The rule behind the calls is not given here.
# Columns and labels:
# [1] = target: T1, Nuclear receptor ROR-gamma (Mus musculus) (UniProt P51450); experiment: Transrepression of RORgammat in Balb/c mouse splenocytes assessed as inhibition of anti-CD3/anti-CD28 stimulated IL-17 gene expression at 0.3 uM measured after 24 hrs in presence of anti-CD3/anti-CD28; type: cell-based
# T1 sequence (whole entry): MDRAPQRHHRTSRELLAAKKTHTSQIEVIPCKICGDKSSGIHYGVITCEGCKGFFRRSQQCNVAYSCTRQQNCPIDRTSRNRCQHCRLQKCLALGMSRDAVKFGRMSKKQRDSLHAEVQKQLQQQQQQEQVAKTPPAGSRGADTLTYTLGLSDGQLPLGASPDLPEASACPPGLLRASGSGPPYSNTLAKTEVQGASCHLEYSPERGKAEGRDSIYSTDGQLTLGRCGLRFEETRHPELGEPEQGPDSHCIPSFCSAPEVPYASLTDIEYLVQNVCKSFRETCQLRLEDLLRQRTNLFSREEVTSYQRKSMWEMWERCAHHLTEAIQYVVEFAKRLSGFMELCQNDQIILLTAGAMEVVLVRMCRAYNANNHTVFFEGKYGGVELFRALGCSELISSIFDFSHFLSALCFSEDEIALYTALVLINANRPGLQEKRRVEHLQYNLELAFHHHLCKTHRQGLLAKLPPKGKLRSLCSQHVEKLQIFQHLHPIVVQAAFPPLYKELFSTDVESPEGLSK
# [2] = target: T1, Nuclear receptor ROR-gamma (Mus musculus); experiment: Transrepression of RORgammat in Balb/c mouse splenocytes assessed as inhibition of anti-CD3/anti-CD28 stimulated IL-17 gene expression at 3 uM measured after 24 hrs in presence of anti-CD3/anti-CD28; type: cell-based
# [3] = target: T1, Nuclear receptor ROR-gamma (Mus musculus); experiment: Transrepression of RORgammat in Balb/c mouse splenocytes assessed as inhibition of anti-CD3/anti-CD28 stimulated IL-17 gene expression at 30 uM measured after 24 hrs in presence of anti-CD3/anti-CD28; type: cell-based
# Mus musculus [4] = experiment: Immunosuppressive activity in MOG (35 to 55 residues)/pertussis toxin-induced experimental allergic encephalomyelitis C57BL/6J mouse model assessed as decrease in ratio of Th17:Th1 at 3 to 30 mg/kg, po bid by intracellular staining method; type: functional, organism-based
# Mus musculus [5] = organism: Mus musculus; experiment: Effect on non-RORgammat-dependent IFNG gene expression in BALB/c mouse splenocytes measured after 24 hrs in presence of anti-CD3/anti-CD28; type: functional
# Mus musculus [6] = organism: Mus musculus; experiment: Effect on non-RORgammat-dependent ll4 gene expression in BALB/c mouse splenocytes measured after 24 hrs in presence of anti-CD3/anti-CD28; type: functional
# Mus musculus [7] = organism: Mus musculus; experiment: Effect on non-RORgammat-dependent TNFA gene expression in BALB/c mouse splenocytes measured after 24 hrs in presence of anti-CD3/anti-CD28; type: functional
# Mus musculus [8] = organism: Mus musculus; experiment: Effect on non-RORgammat-dependent il6 gene expression in BALB/c mouse splenocytes measured after 24 hrs in presence of anti-CD3/anti-CD28; type: functional
# Mus musculus [9] = experiment: Immunosuppressive activity in MOG (35 to 55 residues)/pertussis toxin-induced experimental allergic encephalomyelitis C57BL/6J mouse model assessed as delay in disease onset at 3 to 30 mg/kg, po bid; type: functional, organism-based
# Mus musculus [10] = experiment: Immunosuppressive activity in MOG (35 to 55 residues)/pertussis toxin-induced experimental allergic encephalomyelitis C57BL/6J mouse model assessed as reduction in disease severity at 3 to 30 mg/kg, po bid measured at days 15-19; type: functional, organism-based
# Mus musculus [11] = experiment: Immunosuppressive activity in MOG (35 to 55 residues)/pertussis toxin-induced experimental allergic encephalomyelitis C57BL/6J mouse model assessed as IFN-gamma production of CNS infiltrating CD4+ Th1 cells at 3 to 30 mg/kg, po bid by intracellular staining method; type: functional, organism-based
# [12] = target: T2, Nuclear receptor ROR-gamma (Homo sapiens) (UniProt P51449); experiment: Transactivation of recombinant GAL4-DBD fused RORgammat LBD (unknown origin) expressed in HEK293T cells at 1 uM incubated for 18 to 24 hrs by dual-Glo luciferase assay relative to control; type: cell-based
# T2 sequence (whole entry): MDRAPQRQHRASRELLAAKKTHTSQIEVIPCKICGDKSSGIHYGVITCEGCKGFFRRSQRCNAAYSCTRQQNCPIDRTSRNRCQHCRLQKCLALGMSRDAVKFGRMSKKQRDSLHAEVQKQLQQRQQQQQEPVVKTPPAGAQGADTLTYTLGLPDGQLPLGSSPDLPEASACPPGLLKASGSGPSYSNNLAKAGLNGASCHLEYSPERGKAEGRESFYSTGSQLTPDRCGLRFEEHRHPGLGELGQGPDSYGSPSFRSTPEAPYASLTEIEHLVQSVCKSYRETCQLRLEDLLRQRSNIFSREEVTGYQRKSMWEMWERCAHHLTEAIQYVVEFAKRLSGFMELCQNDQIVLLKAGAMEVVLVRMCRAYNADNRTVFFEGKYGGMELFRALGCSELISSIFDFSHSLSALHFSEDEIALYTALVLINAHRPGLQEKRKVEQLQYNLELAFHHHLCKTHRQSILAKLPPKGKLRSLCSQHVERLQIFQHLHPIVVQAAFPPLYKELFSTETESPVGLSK
# [13] = Metabolic stability in mouse liver microsomes assessed as parent compound remaining at 1 uM preincubated for 5 mins followed by NADPH addition after 30 mins by LC-MS/MS analysis; type: ADME, Microsome; conditions: read-out: Stability
# [14] = AUC (0 to 24 hrs) in Balb/c mouse at 3 mg/kg, iv; type: ADME, organism-based; parameters: time < 24 hr, dose 3 mg/kg, route intravenous; conditions: in vivo
# [15] = AUC (0 to infinity) in Balb/c mouse at 3 mg/kg, iv; type: ADME, organism-based; parameters: dose 3 mg/kg, route intravenous, time infinity; conditions: in vivo
# [16] = Volume of distribution at steady state in Balb/c mouse at 3 mg/kg, iv; type: ADME, organism-based; conditions: in vivo, read-out: Vdss
# [17] = Clearance in Balb/c mouse at 3 mg/kg, iv; type: ADME, organism-based; conditions: in vivo
# [18] = Half life in Balb/c mouse at 3 mg/kg, iv; type: ADME, organism-based; conditions: in vivo
# [19] = Cmax in Balb/c mouse at 10 mg/kg, po; type: ADME, organism-based; parameters: dose 10 mg/kg, route oral; conditions: in vivo
# [20] = Tmax in Balb/c mouse at 10 mg/kg, po; type: ADME, organism-based; conditions: in vivo
# [21] = AUC (0 to 24 hrs) in Balb/c mouse at 10 mg/kg, po; type: ADME, organism-based; parameters: time < 24 hr, dose 10 mg/kg, route oral; conditions: in vivo
# [22] = AUC (0 to infinity) in Balb/c mouse at 10 mg/kg, po; type: ADME, organism-based; parameters: dose 10 mg/kg, time infinity, route oral; conditions: in vivo
# [23] = Half life in Balb/c mouse at 10 mg/kg, po; type: ADME, organism-based; conditions: in vivo
# [24] = Oral bioavailability in Balb/c mouse at 10mg/kg; type: ADME, organism-based; conditions: in vivo
# [25] = AUC (0 to 24 hrs) in Sprague-Dawley rat at 3 mg/kg, iv administered as single dose measured up to 24 hrs by LC-MS/MS analysis; type: ADME, organism-based; parameters: time < 24 hr, dose 3 mg/kg, route intravenous; conditions: in vivo
# [26] = AUC (0 to infinity) in Sprague-Dawley rat at 3 mg/kg, iv administered as single dose measured up to 24 hrs by LC-MS/MS analysis; type: ADME, organism-based; parameters: dose 3 mg/kg, time infinity, route intravenous; conditions: in vivo
# [27] = Volume of distribution at steady state in Sprague-Dawley rat at 3 mg/kg, iv administered as single dose measured up to 24 hrs by LC-MS/MS analysis; type: ADME, organism-based; conditions: in vivo, read-out: Vdss
# [28] = Clearance in Sprague-Dawley rat at 3 mg/kg, iv administered as single dose measured up to 24 hrs by LC-MS/MS analysis; type: ADME, organism-based; conditions: in vivo
# [29] = Half life in Sprague-Dawley rat at 3 mg/kg, iv administered as single dose measured up to 24 hrs by LC-MS/MS analysis; type: ADME, organism-based; conditions: in vivo
# [30] = Cmax in Sprague-Dawley rat at 10 mg/kg, po via gavage measured up to 24 hrs by LC-MS/MS analysis; type: ADME, organism-based; parameters: dose 10 mg/kg, route oral; conditions: in vivo
# [31] = Tmax in Sprague-Dawley rat at 10 mg/kg, po via gavage measured up to 24 hrs by LC-MS/MS analysis; type: ADME, organism-based; conditions: in vivo
# [32] = AUC (0 to 24 hrs) in Sprague-Dawley rat at 10 mg/kg, po via gavage measured up to 24 hrs by LC-MS/MS analysis; type: ADME, organism-based; parameters: time < 24 hr, dose 10 mg/kg, route oral; conditions: in vivo
# [33] = AUC (0 to infinity) in Sprague-Dawley rat at 10 mg/kg, po via gavage measured up to 24 hrs by LC-MS/MS analysis; type: ADME, organism-based; parameters: dose 10 mg/kg, time infinity, route oral; conditions: in vivo
# [34] = Half life in Sprague-Dawley rat at 10 mg/kg, po via gavage measured up to 24 hrs by LC-MS/MS analysis; type: ADME, organism-based; conditions: in vivo
# [35] = Oral bioavailability in Sprague-Dawley rat at 10mg/kg via gavage measured up to 24 hrs by LC-MS/MS analysis; type: ADME, organism-based; conditions: in vivo
# Mus musculus [36] = experiment: Inhibition of anti-CD3-induced IL-17A level in Balb/c mouse plasma at 5 mg/kg, po treated prior to stimulation with anti-CD3 for 3 hrs relative to control; type: functional
compound,measurement,setting,value
O=C(O)c1ccc(-n2cc(C(=O)c3c(Cl)cccc3Cl)c3cccc(F)c32)cc1,inhibition,[1],2%
same,inhibition,[2],52%
same,inhibition,[3],76%
same,inhibition,Mus musculus [4],Active
same,Activity,Mus musculus [5],inactive
same,Activity,Mus musculus [6],inactive
same,Activity,Mus musculus [7],inactive
same,Activity,Mus musculus [8],inactive
same,Activity,Mus musculus [9],Active
same,Activity,Mus musculus [10],Active
same,Activity,Mus musculus [11],Active
O=C(O)c1ccc(-n2cc(C(=O)c3c(Cl)cccc3Cl)c3ccncc32)cc1,inhibition,[12],27%
same,"remaining at 0.5 h, 1 µM",[13],100%
O=C([O-])c1ccc(-n2cc(C(=O)c3c(Cl)cccc3Cl)c3cccc(F)c32)cc1.[Na+],AUC(0-t) at 24 h,[14],4.2 µM·h
same,AUC(0-inf),[15],4.6 µM·h
same,Vd,[16],4.3 L/kg
same,clearance,[17],25.2 mL/min/kg
same,half-life,[18],2.7 h
same,Cmax,[19],7 µM
same,Tmax,[20],0.5 h
same,AUC(0-t) at 24 h,[21],12.6 µM·h
same,AUC(0-inf),[22],12.7 µM·h
same,half-life,[23],3.5 h
same,bioavailability,[24],91%
same,AUC(0-t) at 24 h,[25],3.69 µM·h
same,AUC(0-inf),[26],4.11 µM·h
same,Vd,[27],4.32 L/kg
same,clearance,[28],28.9 mL/min/kg
same,half-life,[29],3.47 h
same,Cmax,[30],3 µM
same,Tmax,[31],0.5 h
same,AUC(0-t) at 24 h,[32],6.7 µM·h
same,AUC(0-inf),[33],7.59 µM·h
same,half-life,[34],2.54 h
same,bioavailability,[35],50%
C[C@@H]1C[C@H]2[C@@H]3CCC4=CC(=O)C=C[C@]4(C)[C@@]3(F)[C@@H](O)C[C@]2(C)[C@@]1(O)C(=O)CO [DEXAMETHASONE],inhibition in vivo at 5 mg/kg,Mus musculus [36],51%
